Assay results reported in patent EP1552850A2, “A combination of FBPase inhibitors and insulin sensitizers for the treatment of diabetes” (priority 1998, dated 2000).

Tests used:
[1] = test system: Rat Hepatocytes; assay: Inhibition of Glucose Production and Elevation of Fructose-1,6-Bisphosphate Levels in Rat Hepatocytes; format: cell-based
Method: Hepatocytes were prepared from fed Sprague-Dawley rats (250-300 g) according to the procedure of Berry and Friend (Berry, M.N., Friend, D.S., 1969, J. Cell. Biol. 43, 506-520) as modified by Groen (Groen, A.K., Sips, H.J., Vervoom, R.C., Tager, J.M. , 1982, Eur. J. Biochem. 122, 87-93). Hepatocytes (75 mg wet weight/ml) were incubated in 1 ml Krebs-bicarbonate buffer containing 10 mM Lactate, 1 mM pyruvate, 1 mg/ml BSA, and test compound concentrations from 0 to 500 µM. Incubations were carried out in a 95% oxygen, 5% carbon dioxide atmosphere in closed, 50-ml Falcon tubes submerged in a rapidly shaking water bath (37°C). After 1 hour, an aliquot (0.25 ml) was removed, transferred to an Eppendorf tube and centrifuged. 50 µl of supernatant was then assayed for glucose content using a Sigma Glucose Oxidase kit as per the manufacturer's instructions.
Rat hepatocytes were isolated and incubated as described in Example C. Cell extracts, were analyzed for glucose content as described in Example C, and also for fructose 1,6-bisphosphate. Fructose 1,6-bisphosphate was assayed spectrophotometrically by coupling its enzymatic conversion to glycerol 3-phosphate to the oxidation of NADH, which was monitored at 340 nm. […] After a 30 minute preincubation at 37°C, 1 unit/mi of aldolase was added and the change in absorbance measured until a stable value was obtained. […]

[2] = Oral Bioavailability Determination (urinary excretion method); format: in vivo, Sprague Dawley rats; conditions: rat, oral 10-40 mg/kg vs intravenous parent, 24 hours urine
Method: The oral bioavailability of prodrugs and parent compounds was determined by the urinary excretion method in the rat. Prodrugs were dissolved in 10% ethanol/90% polyethylene glycol (mw 400) and administered by oral gavage at doses of 10 to 40 mg/kg parent compound equivalents to 6-hour fasted, Sprague Dawley rats (220-240 g). Parent compounds were typically dissolved in deionized water, neutralized with sodium hydroxide, and then administered orally at 10-40 mg/kg or intravenously at ~10 mg/kg. The rats were subsequently placed in metabolic cages and urine was collected for 24 hours. The quantity of parent compound excreted into urine was determined by HPLC analysis as described in Example F. Analysis was performed as described in Example F. For prodrugs, the percentage oral bioavailability was estimated by comparison of the recovery in urine of the parent compound generated from the prodrug administered orally, to that recovered in urine following intravenous administration of the corresponding parent compound. For parent compounds, the percentage oral bioavailability was estimated by comparison of the recovery in urine of the parent compound when administered orally to that recovered when administered intravenously.

[3] = Hepatic and plasma drug metabolite levels after Compound A p.o. in rats; format: in vivo, SpragueDawley rats; conditions: after Compound A 250 mg/kg by oral gavage; 8 hours sampling
Method: Compound A was administered by oral gavage to freely-feeding SpragueDawley rats (250-300g). The compound was prepared as a suspension in carboxymethylcellulose, and administered at a dose of 250 mg/kg. For the determination of liver metabolites, rats were serially sacrificed over the course of 24 hours after drug administration. Livers were freeze-clamped, homogenized in perchloric acid, neutralized, and then analyzed for Compound B by anion exchange HPLC.
For the determination of plasma metabolites, rats were instrumented with carotid catheters prior to oral dosing. Blood samples were withdrawn via the catheters at appropriate time points over the course of 8 hours post drug administration. Plasma was prepared from the blood samples by centrifugation, and plasma protein precipitated by the addition of methanol to 60%. Compound A metabolites were quantitated by reverse phase HPLC in the deproteinated plasma samples. A C18 column (1.4 cm X 250 mm) was equilibrated with 10 mM sodium phosphate, pH 5.5 and eluted with a gradient from this buffer to acetonitrile. Detection was at 254 nm.

[4] = test system: ZDF rat; assay: Combination treatment with Troglitazone and Compound G or Compound J in the ZDF rat - blood glucose; format: in vivo, Zucker Diabetic Fatty (ZDF) rat; conditions: for Blood Glucose, Day 0: baseline
Method: At 11 weeks of age, animals with blood glucose >500 mg/dl were selected and divided into 4 treatment groups (n=8/group). […] Blood glucose levels were measured in tail vein samples by means of a HemoCue glucose analyzer (HemoCue Inc., Mission Viejo, CA). Values are expressed as the mean plus or minus the standard error of the mean. Differences between groups were evaluated by analysis of variance with the Tukey-Kramer post hoc test.

[5] = test system: ZDF rat; conditions: in vivo
Method: At 11 weeks of age, animals with blood glucose >500 mg/dl were selected and divided into 4 treatment groups (n=8/group). […] Values are expressed as the mean plus or minus the standard error of the mean. Differences between groups were evaluated by analysis of variance with the Tukey-Kramer post hoc test.
Plasma was prepared by centrifugation and triglyceride levels then measured by means of a standard assay kit according to the instructions of the manufacturer (Sigma Chemical Company). Differences between groups were evaluated by analysis of variance with the Tukey-Kramer post hoc test. Results are considered significant with p<0.05.

[6] = test system: type 2 diabetics; conditions: clinic; cited from earlier work
[7] = test system: db/db Mouse; assay: Combination treatment with Troglitazone and Compound G in the db/db mouse - blood glucose; conditions: db/db mice, baseline
Method: Male db/db mice were purchased at 8 weeks of age from Jackson Labs (Bar Harbor, Maine). […] At 10 weeks of age, animals with blood glucose >400 mg/dl and <900 mg/dl were selected and divided into 4 treatment groups (n=5-6/group). […] Treatment was for 18 days. […] Blood glucose levels were measured in tail vein samples by means of a HemoCue glucose analyzer (HemoCue Inc., Mission Viejo, CA). Values are expressed as the mean plus or minus the standard error of the mean. Differences between groups were evaluated by analysis of variance with the Tukey-Kramer post hoc test. Results are considered significant with p<0.05.

[8] = Troglitazone-Compound J study, Troglitazone 0.2%, Compound J 0.4%

CCc1cc(F)c(N)c2nc(-c3ccc(P(=O)(O)O)o3)n(CC(C)C)c12 [Compound E]
intracellular fructose 1,6-bisphosphate [1]: dose-dependent elevation

CSc1nc(-c2ccc(P(=O)(O)O)o2)c(CC(C)C)s1 [Compound H, 2-Methylthio-5-isobutyl-4-[2-(5-phosphono)furanyl]thiazole]
Oral bioavailability, % [2]: 4%

NC(=O)c1ncn([C@@H]2O[C@H](CO)[C@@H](O)[C@H]2O)c1Br [5-bromo-1-βD-ribofuranosyl-imidazole-carboxamide]
detection in plasma [3]: detectable

CCOC(=O)[C@H](C)NP(=O)(N[C@@H](C)C(=O)OCC)c1ccc(-c2nc(N)sc2CC(C)C)o1 [Compound J, 2-Amino-5-isobutyl-4-{2-[5-(N,N'-bis((S)-1-ethoxycarbonyl)ethyl)phosphonamido]furanyl}thiazole]
Blood Glucose, Day 0 [4, 8]: 674 ± 20 mg/dL
Blood Glucose, Day 21 [4, 8]: 452 ± 40 mg/dL
blood glucose lowering, pilot studies ([4]; ZDF rat, food admixture dose finding): trend (not significant) towards more pronounced blood glucose lowering at 0.4% than at 0.2%
elevation of plasma triglycerides [5]: ~2 fold

Cc1c(C)c2c(c(C)c1O)CCC(C)(COc1ccc(CC3SC(=O)NC3=O)cc1)O2 (stereo not shown) [Troglitazone]
Blood Glucose, Day 0 ([4]; Troglitazone-Compound G study, 0.2% food admixtures): 655 ± 33 mg/dL
hepatotoxicity, elevation of liver enzymes [6]: 1 % of patients
Blood Glucose, Day 0 [7]: 710 ± 44 mg/dL
